From patent US11175282B2, “Method for predicting and monitoring clinical response to immunomodulatory therapy” (BIOHOPE Scientific Solutions for Human Health S.L., priority 2017, dated 2021)

What was measured:
[1] = tested on: renal transplanted patient PBMCs; assay: Immunobiogram: disc diffusion gradient in collagen-methylcellulose hydrogel in 12 channelled well plates, clinical study; assay type: cell-based, human; conditions: patient 211; compared with tacrolimus and prednisone curves; FIG. 31
Experimental: A multicenter study was conducted with a cohort of 70 renal transplant recipient patients, also 10 healthy volunteers were included for comparison purposes. The inclusion criteria consisted in men and women aged over 18 years with kidney transplant performed at least 1 year prior to inclusion. Patients present different defined and registered immunological risk profiled when included. Transplant patient clinical history includes complete recording of previous and updated immunological relevant data at the inclusion time.
Sample collection for the immunobiogram implementation consisted in two sodium heparin Vacutainer® tubes. Human PBMCs extraction from blood sample was performed using density gradient centrifugation (760 G during 15-20 minutes at RT) in adequate hydrophilic isosmotic polysaccharide solutions with a density of 1.077 g/ml (Pancoll, PAN BIOTECH GmbH or Ficoll, GE Healthcare). Cells were extracted with pipette from the gradient interphase and then washed in HBSS w/o Ca, Mg and Phenol red (Lonza), and resuspended in X-VIVO 15 (Lonza) medium. Obtained cells were frozen in cryovials with serum free medium (Profreeze-CDM, Lonza) DMSO (Sigma Aldrich) 7.5% and storage in liquid nitrogen until use. […] After the supernatant was discarded, cells were re-suspended in X-VIVO medium for further count and viability quantification. […]

Human activated PBMC = assay: Disc diffusion assay in semisolid media (agarose 0.5% / collagen 0.3% hydrogels), 6 well plates, resazurin read-out; assay type: cell-based; conditions: different disc loads, FIG. 12
Experimental: PBMC T-Cells were activated though incubation with Dynabeads Human T-activator CD3/CD28 agonistic antibodies (Thermo Fisher, cat #111.32D) using a ratio 1:2 (dynabeads:PBMC) in a cell culture bottle. PBMC in the absent of dynabeads were also cultured as negative control of stimulation.
Paper discs of 6 mm diameter discs were used as immunosuppressant delivery units. Discs were obtained from manual drill of Whatman™, 3 mm CHR chromatography paper sheet or using ready to use commercial paper disc (DDbiolab). Discs were sterilized by autoclave. Immunosupressant drugs (Sigma Aldrich) was dissolved in pure ethanol (Sigma Aldrich) at 20 mg/ml and stored as stock solution at −20° C. till use. […]
Resazurin (blue) transition to resofurin (pink) was monitored with the naked eye or checked after overnight incubation depending on assay design. […] Results were collected through images acquisition with visible light (Sanyo camera S1070 and E1075), ultraviolet light (UVltec Geldoc Gel Light Imaging System) and fluorescence microplate multyreader (PHERAstar® FSX Multimode Microplate Reader from BMG LABTECH or Spark® 10M Tecan.). Inhibitory gradients halos or fronts induced by discs loaded with immunosuppressants were quantified with ImageJ software in a semi-automated process or Spark control v1.2.25 software. […]

[2] = general solubility profile, no test described; cited from earlier work
stimulated human PBMCs = assay: Liquid media serial dilution assay in standard 96 well microplate, resazurin read-out; assay type: cell-based
Experimental: Human PBMC were extracted for Buffy coat bags from blood bank volunteer donation using density gradient centrifugation in adequate hydrophilic isosmotic polysaccharide solutions with a density of 1.077 g/ml (Pancoll, PAN BIOTECH GmbH or Ficoll, GE Healthcare) at 760 G during 20 minutes at RT. Cells were extracted with pipette from the gradient interphase and then washed in HBSS w/o Ca, Mg and Phenol red (Lonza), and resuspended in X-VIVO 15 (Lonza) medium. Obtained cells were frozen in cryovials with serum free medium (Profreeze-CDM, Lonza) DMSO (Sigma Aldrich) 7.5% and storage until use in liquid nitrogen.
A few days later, removed vials from liquid nitrogen were immediately thawed in a 37° C. water bath for 2 minutes. […] After supernatant discard, cells were re-suspended in X-VIVO medium for further count and viability quantification.
After thawing PBMCs viability was quantified by trypan blue and Neubauer chamber. […]
After 10-12 hours of incubation with presto blue, 100 ul of each well were transferred to a 96 well ELISA plate, and then absorbance at 570 and 620 nm wavelength was quantified in a robotic absorbance microplate reader (Tekan, Infinite F50). Final values were obtained as result of absorbance at 570 nm minus absorbance at 620 nm, following instructions from presto blue manufacturer (Thermo Fisher). […]

SMILES | Immunobiogram response curve [1] | inhibitory halos over activated human PBMC (Human activated PBMC) | aqueous solubility [2] | recovery of PBMC proliferative capacity versus positive control (stimulated human PBMCs; 96 standard wells microplate serial dilutions, all concentration tested, even femtomolar, FIGS. 14 and 15) | inhibitory effect over stimulated human PBMCs (stimulated human PBMCs; standard wells, all the concentrations tested (even at femtomolar levels))
COc1c(C)c2c(c(O)c1C/C=C(\C)CCC(=O)OCCN1CCOCC1)C(=O)OC2 [MMF, micofenolate] | less responsive | – | – | – | –
COc1c(C)c2c(c(O)c1C/C=C(\C)CCC(=O)O)C(=O)OC2 [Mycophenolic acid, Mycophenolic Acid] | – | Dose dependant inhibitory halos | good aqueous solubility | – | –
CO[C@H]1C[C@@H]2CC[C@@H](C)[C@@](O)(O2)C(=O)C(=O)N2CCCC[C@H]2C(=O)O[C@H]([C@H](C)C[C@@H]2CC[C@@H](OCCO)[C@H](OC)C2)CC(=O)[C@H](C)/C=C(\C)[C@@H](O)[C@@H](OC)C(=O)[C@H](C)C[C@H](C)/C=C/C=C/C=C/1C [Everolimus] | – | Dose dependant inhibitory halos | – | did not recover proliferative capacity comparable with positive control level | at least some inhibitory level effect
